The text below walks through data of patent US10072011B2, “Substituted bridged urea analogs as sirtuin modulators” (GlaxoSmithKline Intellectual Property (No.2) Limited, priority 2014, dated 2018).

The test concerns the target T1, SIRT1 (Homo sapiens, UniProt Q96EB6).
T1 sequence (Q96EB6 1-747): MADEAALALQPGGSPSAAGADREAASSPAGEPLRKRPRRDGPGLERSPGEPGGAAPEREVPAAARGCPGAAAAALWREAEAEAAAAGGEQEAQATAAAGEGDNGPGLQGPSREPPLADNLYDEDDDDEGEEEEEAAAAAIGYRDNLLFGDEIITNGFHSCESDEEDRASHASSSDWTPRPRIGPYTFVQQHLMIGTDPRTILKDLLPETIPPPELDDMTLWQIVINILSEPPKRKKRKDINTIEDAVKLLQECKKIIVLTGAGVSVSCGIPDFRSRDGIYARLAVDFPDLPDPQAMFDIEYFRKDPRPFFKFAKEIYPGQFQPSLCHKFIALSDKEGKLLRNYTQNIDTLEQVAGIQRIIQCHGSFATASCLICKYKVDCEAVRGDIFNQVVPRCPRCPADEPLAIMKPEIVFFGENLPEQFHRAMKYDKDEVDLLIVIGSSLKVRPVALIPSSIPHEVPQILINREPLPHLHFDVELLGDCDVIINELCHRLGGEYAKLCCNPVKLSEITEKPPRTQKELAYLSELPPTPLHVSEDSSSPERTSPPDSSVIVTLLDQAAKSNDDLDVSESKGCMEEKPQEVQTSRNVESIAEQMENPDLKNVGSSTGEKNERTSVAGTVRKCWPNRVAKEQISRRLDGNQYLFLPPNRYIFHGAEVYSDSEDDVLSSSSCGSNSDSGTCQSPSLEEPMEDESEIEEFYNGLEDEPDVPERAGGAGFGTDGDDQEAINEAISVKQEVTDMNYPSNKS
The test is described as follows: Trp mass spectrometry assay of SIRT1 activation (Ac-R-H-K-K(Ac)-W-NH2 peptide). The class given is biochemical. Particulars: Trp peptide 0.5 μM, 120 μM βNAD+, 10 nM SIRT1, 25 min at 25° C.; for Emax: 25 min, relative to control (100%), read-out: TRP MAX RESP (percent maximum fold activation). How it is done: The Trp mass spectrometry assay was conducted as follows. […] The SIRT1 protein was obtained by cloning the SirT1 gene into a T7-promoter containing vector, which was then expressed in BL21(DE3) bacterial cells and purified as described in further detail below. Test compound was added at varying concentrations to this reaction mixture and the resulting reactions were monitored. After the 25 minute incubation with SIRT1, 10 μL of 10% formic acid was added to stop the reaction. The resulting reactions were sealed and frozen for later mass spec analysis. The relative SIRT1 activity was then determined by measuring the amount of O-acetyl-ADP-ribose (OAADPR) formed (or, alternatively, the amount of deacetylated Trp peptide generated) by the NAD-dependent sirtuin deacetylation reaction in the presence of varying concentrations of the test compound versus control reactions lacking the test compound. The degree to which the test agent activated deacetylation by SIRT1 was expressed as EC1.5 (i.e., the concentration of compound required to increase SIRT1 activity by 50% over the control lacking test compound), and Percent Maximum Activation (i.e., the maximum activity relative to control (100%) obtained for the test compound).
This time point was the same as that used for test compounds and, within the linear range, the endpoint represents a change in velocity.
For the above assay, SIRT1 protein was expressed and purified as follows. The SirT1 gene was cloned into a T7-promoter containing vector and transformed into BL21(DE3). The protein was expressed by induction with 1 mM IPTG as an N-terminal His-tag fusion protein at 18° C. overnight and harvested at 30,000×g. Cells were lysed with lysozyme in lysis buffer (50 mM Tris-HCl, 2 mM Tris[2-carboxyethyl]phosphine (TCEP), 10 μM ZnCl2, 200 mM NaCl) and further treated with sonication for 10 min for complete lysis. The protein was purified over a Ni-NTA column (Amersham) and fractions containing pure protein were pooled, concentrated and run over a sizing column (Sephadex S200 26/60 global). The peak containing soluble protein was collected and run on an Ion-exchange column (MonoQ). Gradient elution (200 mM-500 mM NaCl) yielded pure protein. This protein was concentrated and dialyzed against dialysis buffer (20 mM Tris-HCl, 2 mM TCEP) overnight. The protein was aliquoted and frozen at −80° C. until further use.
“NT” means not tested; “ND” means not determinable.

SMILES strings stand for the structures. A value given as a limit tells only on which side of the number the result lay.

Regarding `CC(C)c1ccc(NC(=O)N2c3nc(C(=O)NCC(F)(F)F)ccc3N3CC[C@H]2C3)nc1` [Example 172, (4S)—N5-(5-isopropylpyridin-2-yl)-N7-(2,2,2-trifluoroethyl)-3,4-dihydro-1,4-methanopyrido[2,3-b][1,4]diazepine-5,7(2H)-dicarboxamide], the Emax is over 150% and the “TRP Activity (EC1.5, concentration of test compound that results in 150% activation of SIRT1)” value is “A (EC1.5<1 μM)”.

Turning to `O=C(NCC(F)(F)F)c1ccc2c(n1)N(C(=O)Nc1ccc3[nH]cnc3c1)[C@H]1CCN2C1` [Example 231, (4S)—N5-(1H-benzo[d]imidazol-5-yl)-N7-(2,2,2-trifluoroethyl)-3,4-dihydro-1,4-methanopyrido[2,3-b][1,4]diazepine-5,7(2H)-dicarboxamide], the Emax was over 150% and the “TRP Activity (EC1.5, concentration of test compound that results in 150% activation of SIRT1)” value was “B (EC1.5 1-25 μM)”.

Consider `CC(C)(C)CNC(=O)c1ccc2c(n1)N(C(=O)Nc1ccc(F)cn1)[C@H]1CCN2C1` [Example 73, (4S)—N5-(5-fluoropyridin-2-yl)-N7-neopentyl-3,4-dihydro-1,4-methanopyrido[2,3-b][1,4]diazepine-5,7(2H)-dicarboxamide], for which the Emax was over 150% and the “TRP Activity (EC1.5, concentration of test compound that results in 150% activation of SIRT1)” value is listed as “A (EC1.5<1 μM)”.

Regarding `O=C(NCC1(CO)CC1)c1ccc2c(n1)N(C(=O)Nc1ccccn1)[C@H]1CCN2C1` [Example 28, (4S)—N7-((1-(hydroxymethyl)cyclopropyl)methyl)-N5-(pyridin-2-yl)-3,4-dihydro-1,4-methanopyrido[2,3-b][1,4]diazepine-5,7(2H)-dicarboxamide], the Emax is over 150% and the “TRP Activity (EC1.5, concentration of test compound that results in 150% activation of SIRT1)” value is “B (EC1.5 1-25 μM)”.

In the case of `C#C[C@H](C)NC(=O)c1ccc2c(n1)N(C(=O)Nc1ccccn1)[C@H]1CCN2C1` [Example 142, (4S)—N7-((S)-but-3-yn-2-yl)-N5-(pyridin-2-yl)-3,4-dihydro-1,4-methanopyrido[2,3-b][1,4]diazepine-5,7(2H)-dicarboxamide], the Emax is over 150% and the “TRP Activity (EC1.5, concentration of test compound that results in 150% activation of SIRT1)” value is on record as “A (EC1.5<1 μM)”.

For `C[C@@H](NC(=O)c1ccc2c(n1)N(C(=O)Nc1ncccn1)[C@H]1CCN2C1)C(F)(F)F` [Example 130, (4S)—N5-(pyrimidin-2-yl)-N7-((R)-1,1,1-trifluoropropan-2-yl)-3,4-dihydro-1,4-methanopyrido[2,3-b][1,4]diazepine-5,7(2H)-dicarboxamide], the Emax was over 150% and the “TRP Activity (EC1.5, concentration of test compound that results in 150% activation of SIRT1)” value is given as “A (EC1.5<1 μM)”.

As for `C[C@@H](NC(=O)c1ccc2c(n1)N(C(=O)Nc1cc[nH]n1)[C@H]1CCN2C1)C(F)(F)F` [Example 68, (4S)—N5-(1H-pyrazol-3-yl)-N7-((R)-1,1,1-trifluoropropan-2-yl)-3,4-dihydro-1,4-methanopyrido[2,3-b][1,4]diazepine-5,7(2H)-dicarboxamide], the Emax is over 150% and the “TRP Activity (EC1.5, concentration of test compound that results in 150% activation of SIRT1)” value was “A (EC1.5<1 μM)”.

As to `O=C(NC1CC1)c1ccc2c(n1)N(C(=O)Nc1cc(-c3cnco3)ccn1)[C@H]1CCN2C1` [Example 78, (4S)—N7-cyclopropyl-N5-(4-(oxazol-5-yl)pyridin-2-yl)-3,4-dihydro-1,4-methanopyrido[2,3-b][1,4]diazepine-5,7(2H)-dicarboxamide], the Emax is over 150% and the “TRP Activity (EC1.5, concentration of test compound that results in 150% activation of SIRT1)” value was “A (EC1.5<1 μM)”.

`O=C(NC1CC1(F)F)c1ccc2c(n1)N(C(=O)Nc1cccnn1)[C@H]1CCN2C1` (single isomer, unassigned) [Example 270]: the Emax is over 150% and the “TRP Activity (EC1.5, concentration of test compound that results in 150% activation of SIRT1)” value was “A (EC1.5<1 μM)”.

`CC(C)[C@@H](NC(=O)c1ccc2c(n1)N(C(=O)Nc1ccccn1)[C@H]1CCN2C1)C(F)(F)F` [Example 29, (4S)—N5-(pyridin-2-yl)-N7-((R)-1,1,1-trifluoro-3-methylbutan-2-yl)-3,4-dihydro-1,4-methanopyrido[2,3-b][1,4]diazepine-5,7(2H)-dicarboxamide]: the Emax was over 150% and the “TRP Activity (EC1.5, concentration of test compound that results in 150% activation of SIRT1)” value is listed as “A (EC1.5<1 μM)”.

`Cc1ccc(NC(=O)N2c3nc(C(=O)N[C@H](C)C(F)(F)F)ccc3N3CC[C@H]2C3)nc1` [Example 56, (4S)—N5-(5-methylpyridin-2-yl)-N7-((R)-1,1,1-trifluoropropan-2-yl)-3,4-dihydro-1,4-methanopyrido[2,3-b][1,4]diazepine-5,7(2H)-dicarboxamide]: the Emax was over 150% and the “TRP Activity (EC1.5, concentration of test compound that results in 150% activation of SIRT1)” value is reported as “A (EC1.5<1 μM)”.

Consider `C[C@@H](NC(=O)c1ccc2c(n1)N(C(=O)Cc1ccccn1)[C@H]1CCN2C1)C(F)(F)F` [Example 276, (4S)-5-(2-(pyridin-2-yl)acetyl)-N—((R)-1,1,1-trifluoropropan-2-yl)-2,3,4,5-tetrahydro-1,4-methanopyrido[2,3-b][1,4]diazepine-7-carboxamide], for which the Emax was under 150% and the “TRP Activity (EC1.5, concentration of test compound that results in 150% activation of SIRT1)” value was “C (EC1.5>25 μM)”.

Regarding `CC[C@@H](NC(=O)c1ccc2c(n1)N(C(=O)Nc1cc(OC[C@H](O)CO)ccn1)[C@H]1CCN2C1)C(F)(F)F` [Example 90, (4S)—N5-(4-((R)-2,3-dihydroxypropoxy)pyridin-2-yl)-N7-((R)-1,1,1-trifluorobutan-2-yl)-3,4-dihydro-1,4-methanopyrido[2,3-b][1,4]diazepine-5,7(2H)-dicarboxamide], the Emax is over 150% and the “TRP Activity (EC1.5, concentration of test compound that results in 150% activation of SIRT1)” value is “A (EC1.5<1 μM)”.

Consider `NC(CNC(=O)c1ccc2c(n1)N(C(=O)Nc1ncccn1)[C@H]1CCN2C1)C(F)(F)F` (single isomer, unassigned) [Example 198], for which the Emax is over 150% and the “TRP Activity (EC1.5, concentration of test compound that results in 150% activation of SIRT1)” value is given as “B (EC1.5 1-25 μM)”.

Consider `C[C@@H](NC(=O)c1ccc2c(n1)N(C(=O)Nc1cc(OCC(=O)O)ccn1)[C@H]1CCN2C1)C(F)(F)F` [Example 265, 2-((2-((4S)-7-(((R)-1,1,1-trifluoropropan-2-yl)carbamoyl)-2,3,4,5-tetrahydro-1,4-methanopyrido[2,3-b][1,4]diazepine-5-carboxamido)pyridin-4-yl)oxy)acetic acid], for which the Emax was over 150% and the “TRP Activity (EC1.5, concentration of test compound that results in 150% activation of SIRT1)” value is “B (EC1.5 1-25 μM)”.

As to `Cc1ccnc(NC(=O)N2c3nc(C(=O)N[C@H](C)C(F)(F)F)ccc3N3CC[C@H]2C3)c1` [Example 55, (4S)—N5-(4-methylpyridin-2-yl)-N7-((R)-1,1,1-trifluoropropan-2-yl)-3,4-dihydro-1,4-methanopyrido[2,3-b][1,4]diazepine-5,7(2H)-dicarboxamide], the Emax is over 150% and the “TRP Activity (EC1.5, concentration of test compound that results in 150% activation of SIRT1)” value was “A (EC1.5<1 μM)”.

With `O=C(NCC(F)(F)F)c1nc2c(cc1O)N1CC[C@@H](C1)N2C(=O)Nc1ccccn1` [Example 285, (4S)-8-hydroxy-N5-(pyridin-2-yl)-N7-(2,2,2-trifluoroethyl)-3,4-dihydro-1,4-methanopyrido[2,3-b][1,4]diazepine-5,7(2H)-dicarboxamide], the Emax is over 150% and the “TRP Activity (EC1.5, concentration of test compound that results in 150% activation of SIRT1)” value is reported as “A (EC1.5<1 μM)”.
